Experimental data as given in paper PMC6393295, “Archaeal NSUN6 catalyzes m^5C72 modification on a wide-range of specific tRNAs” (Nucleic Acids Research, 2018).

Columns and labels:
PhNSun6 (PH1991) [1] = target: T1, PhNSun6 (PH1991) (Pyrococcus horikoshii, UniProt O57712); experiment: X-ray crystal structure of the complex, […] A; type: binding; details: co-crystallised with 1 mM ligand, pH 6.5, 16 °C; Rossmann-fold cofactor site; no tRNA
T1 construct: full length (domains mapped to residues 1-389); E. coli Rosetta (DE3); 2 chains in P1 crystal
T1 sequence (O57712 1-389): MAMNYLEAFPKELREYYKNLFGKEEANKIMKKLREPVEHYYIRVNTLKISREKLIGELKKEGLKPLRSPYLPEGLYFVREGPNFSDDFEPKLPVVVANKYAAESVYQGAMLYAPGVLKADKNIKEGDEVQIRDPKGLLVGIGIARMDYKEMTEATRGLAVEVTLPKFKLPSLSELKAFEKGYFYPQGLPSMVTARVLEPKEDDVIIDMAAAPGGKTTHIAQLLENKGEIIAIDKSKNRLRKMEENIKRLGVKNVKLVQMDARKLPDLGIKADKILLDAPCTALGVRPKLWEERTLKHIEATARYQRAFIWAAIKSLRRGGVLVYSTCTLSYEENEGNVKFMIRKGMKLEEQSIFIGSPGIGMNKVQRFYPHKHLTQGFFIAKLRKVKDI

PhNSun6 (PH1991) [2] = target: T1, PhNSun6 (PH1991); experiment: X-ray crystal structure of the complex, […] A; type: binding; details: co-crystallised with 1 mM ligand, pH 6.5, 16 °C, Rossmann-fold cofactor site, no tRNA

Nc1ncnc2c1ncn2[C@@H]1O[C@H](CSCC[C@H](N)C(=O)O)[C@@H](O)[C@H]1O [SAH, S-adenosyl-homocysteine]
X-ray crystal structure of the complex, 2.18 A (PhNSun6 (PH1991) [1]): form the binding pocket for the cofactor SAH, as shown in Figure 5B

C[S+](CC[C@H](N)C(=O)O)C[C@H]1O[C@@H](n2cnc3c(N)ncnc32)[C@H](O)[C@@H]1O (stereo partly drawn) [SAM, S-adenosyl-methionine]
X-ray crystal structure of the complex, 2.50 A (PhNSun6 (PH1991) [2]; methyl donor, also turned over with tRNA at 65 °C, pH 7.5): PhNSun6 complexed with SAM, SFG and SAH

Nc1ncnc2c1ncn2[C@@H]1O[C@H](C[C@@H](N)CC[C@H](N)C(=O)O)[C@@H](O)[C@H]1O [SFG, sinefungin]
X-ray crystal structure of the complex, 2.50 A (PhNSun6 (PH1991) [2]): PhNSun6 complexed with SAM, SFG and SAH
